This note sets out measurements from ChEMBL document CHEMBL1201862, “PubChem BioAssay data set” (2004).

Test systems include 786-0; SNB-19; ACHN; RXF 393; SW-620; SK-MEL-5; UO-31; KM12; UACC-62; HCC 2998; HT-29; SF-268; OVCAR-3; TK-10; HL-60; EKVX; NCI-H522; OVCAR-8; HOP-92; OVCAR-4.
Holding throughout (experiment): DTP human tumour cell line panel, 48 h

Molecules are shown by their SMILES.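 Where inhibition never reached the appropriate level, the endpoint shown equals the highest concentration tested. Otherwise, values were interpolated linearly from a five-concentration, 48-hour dose response in 96-well plates. GI50 marks 50% less growth.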 Active and inactive are the calls of the source. No stated cut-off is given here; in the data, active = GI50 up to about 1.1 µM and inactive = higher. Bounds are passed on as bounds.

For orientation: GI50 means the concentration that inhibits growth by half. As for `Cn1nc2ccc3nccc(N(CCO)CCO)c3c2n1`, the GI50 in the experiment on 786-0, with SNB-19, in the experiment on ACHN, in the experiment with RXF 393, in the experiment on SW-620 and in the experiment with SK-MEL-5 was > 100 µM (inactive) each time. Besides, the GI50 in the experiment on UO-31, with KM12, in the experiment on UACC-62, with HCC 2998, in the experiment on HT-29 and in the experiment on SF-268 was > 100 µM (inactive) each time. The GI50 in the experiment with OVCAR-3, with TK-10, in the experiment with HL-60, in the experiment with EKVX, in the experiment with NCI-H522 and in the experiment with OVCAR-8 was > 100 µM (inactive) throughout. Besides, the GI50 with HOP-92 was > 100 µM (inactive).

With `O=C1CC2C(=O)N(Cc3ccccc3)C1C(S(=O)(=O)c1ccccc1)C2S(=O)(=O)c1ccccc1` (stereo not given), the GI50 in the experiment with 786-0 is 2.93 µM (inactive); with ACHN it was 1.67 µM (inactive); in the experiment on RXF 393, 1.83 µM (inactive); in the experiment with SW-620, 0.528 µM (active); in the experiment on SK-MEL-5, 15.7 µM (inactive); in the experiment on UO-31 it was 10.7 µM (inactive). Besides, the GI50 in the experiment on KM12 is 13.7 µM (inactive); in the experiment with UACC-62, 1.84 µM (inactive); in the experiment on HCC 2998 it was 8.02 µM (inactive); in the experiment on HT-29, 2.17 µM (inactive); with SF-268 it was 3.44 µM (inactive); with OVCAR-3, 1.78 µM (inactive). Moreover, the GI50 is 2.08 µM (inactive) with OVCAR-4; 1.78 µM (inactive) with TK-10; 1.62 µM (inactive) in the experiment on HL-60; 0.363 µM (active) in the experiment on NCI-H522; 1.94 µM (inactive) in the experiment with OVCAR-8; 2.15 µM (inactive) in the experiment on HOP-92.

With `CCC(CC)C(=O)OC[n+]1ccc(-c2c(COC(=O)NC(C)C)c(COC(=O)NC(C)C)c3n2CCC3)cc1`, the GI50 with 786-0, in the experiment on SNB-19, in the experiment on RXF 393, with SW-620, in the experiment on SK-MEL-5 and in the experiment with UO-31 was > 100 µM (inactive) in each case. Moreover, the GI50 in the experiment with HCC 2998, in the experiment with OVCAR-3, in the experiment with OVCAR-4, in the experiment on HL-60, with EKVX and in the experiment with NCI-H522 was > 100 µM (inactive) throughout. In addition, the GI50 with OVCAR-8 and in the experiment with HOP-92 was > 100 µM (inactive) throughout.

On to `O=c1c2c3c(sc2nc2n1N=C(c1ccc([N+](=O)[O-])cc1)CS2)CCCC3`, for which the GI50 with 786-0, in the experiment on ACHN, in the experiment with RXF 393, in the experiment with SW-620, in the experiment on SK-MEL-5 and with UO-31 was > 100 µM (inactive) throughout. Further, the GI50 with KM12, in the experiment with UACC-62, with HCC 2998, in the experiment on HT-29, in the experiment on SF-268 and in the experiment on OVCAR-3 was > 100 µM (inactive) throughout. Also, the GI50 was > 100 µM (inactive) in the experiment with OVCAR-4; 42.2 µM (inactive) with TK-10; > 100 µM (inactive) in the experiment with HL-60; > 100 µM (inactive) in the experiment with EKVX; > 100 µM (inactive) with NCI-H522; > 100 µM (inactive) in the experiment with OVCAR-8. Moreover, the GI50 in the experiment on HOP-92 was > 100 µM (inactive).
